# Measured values as given in patent US20080242729A1, “Rxr Antagonists in the Treatment of Inflammatory Diseases” (priority 2004, published 2008).
# Legend:
# [1] = system: human skin; experiment: Clinical pilot trial: inflammation potential on healthy, non-inflamed human skin (epicutaneous); type: in vivo
# Description: In a clinical pilot trial on one healthy volunteer compound A is applied epicutaneously in a concentration of 1% for its inflammation potential compared to that of the strong inflammation inducing agent 9-cis RA in concentrations of 0.1%, 0.3% and 1%.
# The compounds are solved or suspended in ethanol/propylene glycol (1:1). They are applied epicutaneously twice daily, 7 days a week, for two consecutive weeks. The site of application is an area of 3×3=9 cm^2 on the abdominal skin. The volume is 0.1 ml per application.
# The following signs and symptoms of skin inflammation are recorded: Erythema, desquamation (scaling), pruritus, burning, pain, exsudation, edema, ulceration. They are classified on a scale of:
# Treatment period lasts from day 1 to 14, the post-treatment observation period from day 15 to day 28
# [2] = system: synovial fibroblasts / human cartilage; experiment: In vitro cartilage degradation by synovial fibroblasts from a RA patient, release of sGAG; type: cell-based
# Protocol: (§1) The effect of RXR antagonists on the activity of synovial fibroblasts, dependent on their state of activation, i.e. modified by a concomitant stimulation by the inflammatory cytokine Interleukin-1β (IL-1β), is determined. Furthermore, it is determined whether this is accompanied by a modulation in the accumulation of the mRNA encoding catabolic enzyme matrix metalloproteinase-1 (MMP-1), responsible for degradation of human cartilage and consequently joint destruction in man. Adherent synovial fluid cells taken from a patient with RA are used after 5 passages in an in vitro assay for cartilage destruction. The cells incubated in flasks coated with 0.1% (0.1 g/100 ml) human cartilage powder are fixed using Matrigel® (BD Biosciences, Becton, Dickinson & Co., Boston, Miss., USA). The release of sulphated glycosaminoglycan (sGAG) into the culture medium is monitored by a commercial calorimetric test according to a method described by S. Björnsson, see Anal. Biochem. 256, 229-237 (1998) using an alcian blue dot plot analysis, and the accumulation of mRNA encoding MMP-1 is quantified by real time PCR (TaqMan® (Roche Diagnostics, Basle, Switzerland)).
# The retinoid agonists all-trans retinoic acid and 9-cis retinoic acid, both physiological metabolites of vitamin A, as well as the RXR antagonist compound A, diluted first in ethanol, and then diluted with vehicle or medium to the desired dose/concentration are tested in a time course (0-35 days for the in vitro assay, 0-48 hours for MMP-1 mRNA, see tables 7, 8 and 10) and dose-dependent (10^−7 to 10^−9 M, see tables 5, 6 and 9). This is conducted in the presence or absence of IL-1β (100 pg/ml).
# [3] = system: MMP-1 mRNA; experiment: MMP-1 mRNA accumulation in synovial fibroblasts (real time PCR); type: cell-based, human
# Protocol: as §1, with “Switzerland)). […] This is conducted in the presence or absence of IL-1β (100 pg/ml).” for “Switzerland)).”
# [4] = system: normal skin of mice; experiment: Effect on normal, non-inflamed skin of mice; type: in vivo, mice (C57BL/6); conditions: mouse ears
# Protocol: The effect of the RXR antagonist compound A on normal skin of mice is investigated. The ears of C57BL/6 mice are treated epicutaneously (topically) for 4 consecutive days with compound A in a concentration of 0.05% and 2.5% in acetone/ethanol (1:1, v/v). Comparison with vehicle control. Daily observation of skin reactions, in particular inflammation, erythema, desquamation, and edema follows. Myeloperoxidase (MPO) activity is determined. The activity of MPO is considered the most sensitive criterium for the assessment of inflammation of the skin (see above, Examples 1 and 2).
# [5] = system: human skin; experiment: Clinical phase I trial: skin inflammation induced by Candidin or UV-B irradiation in healthy volunteers; type: in vivo; conditions: Candidin intradermal or UV-B induced, topical treatment days 1-3, 4 volunteers; compound A 1% lotion, comparators as creams
# Protocol: Four healthy volunteers participate. Inclusion criteria are: Age above 18 years, male or female. They are informed, with written letter of consent. Exclusion criteria are: Preexistant dermatological diseases, known allergy to test agents.
# Inflammation inducing agents: Candidin is administered intradermally (see also D. Poffet, Comparaison entre le pouvoir vaso-constricteur d'un corticoide topique et l'inhibition de la dermite à la candidine après intradermoréaction (IDR). Thèse, Université de Genève, 1984). UV-B rays are administered by a UV-B lamp.
# Inflammation is measured quantitatively. The area of the inflamed skin is measured in cm^2. The thickness of the skin is monitored by Ultrasound at 20 MHz. Erythema is measured by calorimetric determination employing a Minolta CR 20. […]
# All determinations are recorded on a scale from 0 to 4: • 0=no reduction • 1=slight reduction (10 to 20%) • 2=moderate reduction (21 to 40%) • 3=marked reduction (41 to 70%) • 4=very marked reduction (71 to 100%) • Compared to vehicle control.
# [6] = system: human skin; experiment: Clinical pilot trial: preventive and therapeutic effect on 9-cis RA induced human skin inflammation; type: in vivo; conditions: Therapy: 9-cis RA 0.3% day 1 to day 14, compound A 1% from day 15
# Protocol: In this pilot clinical trial on one healthy volunteer, the substance 9-cis RA and compound A are administered epicutaneously. The inflammation-inducing agent 9-cis RA is used in a concentration of 0.3%. The RXR antagonist compound A is applied in a concentration of 1%. The compounds are solved in ethanol/propylene glycol (1:1) and administered twice daily. The site of application is the abdominal skin, with various areas of 3×3=9 cm^2. Volume per application is 0.1 ml.
# The following three clinical settings at different sites are chosen:
# 1. Induction of Skin Inflammation by 9-cis RA • 9-cis RA is administered as a 0.3% solution twice daily from day 1 to day 14. The vehicle is administered from day 15 to disappearances of skin inflammation.
# 2. Prevention of 9-cis RA-Induced Skin Inflammation by RXR Antagonist Compound A • 9-cis RA solution of 0.3% is administered twice daily from day 1 to day 14, each time followed subsequently by application of compound A as a 1% solution.
# 3. Therapy of 9-Cis RA-Induced Skin Inflammation by RXR Antagonist Compound A • 9-cis RA solution of 0.3% is administered twice daily from day 1 to day 14. Compound A as a 1% solution is administered from day 15 until disappearance of skin inflammation.
# The signs and symptoms of skin inflammation are recorded on a 0-4 scale, as described in example 16. […]
compound,measurement,setting,value
"CC1=C(/C=C/C(C)=C\C=C\C(C)=C\C(=O)O)C(C)(C)CCC1 [9-cis RA, 9-cis retinoic acid]",time after discontinuation of treatment until inflammation decreases to 0,"[1]; 0.1% to 1.0%, depending on the concentration (days 18 to 22)",4 to 8 days
same,signs or symptoms of skin inflammation,"[1]; 0.1%, 0.3% and 1.0% epicutaneous twice daily, around the tenth and eleventh day","slight erythema, desquamation and pruritus"
same,signs or symptoms of skin inflammation,"[1]; 0.1%, 0.3% and 1.0% epicutaneous twice daily, first 9 days after start of treatment, one volunteer",no signs or symptoms of skin inflammation
same,signs or symptoms of skin inflammation,"[1]; 0.1 and 0.3% epicutaneous twice daily, days 12, 13 and 14",moderate inflammation
same,signs or symptoms of skin inflammation,"[1]; 1.0% epicutaneous twice daily, days 12, 13 and 14",marked inflammation
same,sGAG in μg/ml (release of sGAG/14 days),"[2]; 10^−7 M, absence of IL-1β",189 µg/mL
same,sGAG in μg/ml (release of sGAG/14 days),"[2]; 10^−7 M, presence of 100 pg/ml IL-1β",221 µg/mL
same,sGAG in μg/ml (release of sGAG/14 days),"[2]; 10^−8 M, absence of IL-1β",107 µg/mL
same,Cumulative μg/ml sGAG/14 days,"[2]; 10^−8 M, absence of IL-1β, day 7",44 µg/mL
same,Cumulative μg/ml sGAG/14 days,"[2]; 10^−8 M, absence of IL-1β, day 14",107 µg/mL
same,Cumulative μg/ml sGAG/14 days,"[2]; 10^−8 M, absence of IL-1β, day 21",206 µg/mL
same,Cumulative μg/ml sGAG/14 days,"[2]; 10^−8 M, absence of IL-1β, day 28",253 µg/mL
same,Cumulative μg/ml sGAG/14 days,"[2]; 10^−8 M, absence of IL-1β, day 35",292 µg/mL
same,sGAG in μg/ml (release of sGAG/14 days),"[2]; 10^−8 M, presence of 100 pg/ml IL-1β",189 µg/mL
same,Cumulative μg/ml sGAG/14 days,"[2]; 10^−8 M, presence of 100 pg/ml IL-1β, day 7",68 µg/mL
same,Cumulative μg/ml sGAG/14 days,"[2]; 10^−8 M, presence of 100 pg/ml IL-1β, day 14",189 µg/mL
same,Cumulative μg/ml sGAG/14 days,"[2]; 10^−8 M, presence of 100 pg/ml IL-1β, day 21",330 µg/mL
same,Cumulative μg/ml sGAG/14 days,"[2]; 10^−8 M, presence of 100 pg/ml IL-1β, day 28",407 µg/mL
same,Cumulative μg/ml sGAG/14 days,"[2]; 10^−8 M, presence of 100 pg/ml IL-1β, day 35",441 µg/mL
same,sGAG in μg/ml (release of sGAG/14 days),"[2]; 10^−9 M, absence of IL-1β",64 µg/mL
same,sGAG in μg/ml (release of sGAG/14 days),"[2]; 10^−9 M, presence of 100 pg/ml IL-1β",204 µg/mL
same,MMP-1 mRNA in relative units (fold increase of baseline value),"[3]; 10^−7 M, after 24 hours",2.60 relative units
same,MMP-1 mRNA in relative units (fold increase of baseline value),"[3]; 10^−8 M, 0 hours",1 relative units
same,MMP-1 mRNA in relative units (fold increase of baseline value),"[3]; 10^−8 M, 2 hours",0.98 relative units
same,MMP-1 mRNA in relative units (fold increase of baseline value),"[3]; 10^−8 M, 6 hours",1.31 relative units
same,MMP-1 mRNA in relative units (fold increase of baseline value),"[3]; 10^−8 M, 12 hours",3.39 relative units
same,MMP-1 mRNA in relative units (fold increase of baseline value),"[3]; 10^−8 M, 24 hours",3.79 relative units
same,MMP-1 mRNA in relative units (fold increase of baseline value),"[3]; 10^−8 M, 48 hours",1.47 relative units
same,MMP-1 mRNA in relative units (fold increase of baseline value),"[3]; 10^−8 M, after 24 hours",3.39 relative units
same,MMP-1 mRNA in relative units (fold increase of baseline value),"[3]; 10^−9 M, after 24 hours",1.54 relative units
"CCCCOc1c(\C(C)=C/C=C/C(C)=C/C(=O)O)cc(C(C)(C)C)cc1C(C)(C)C [compound A, (2E,4E,6Z)-7-[2-butoxy-3,5-bis(1,1-dimethylethyl)-phenyl]-3-methyl-2,4,6-octatrienoic acid]","MPO activity compared to the vehicle control, normal skin","[4]; compound A 0.05%, epicutaneous, 4 days",no significant change
same,"MPO activity in % of that of the vehicle control, normal skin","[4]; compound A 2.5%, epicutaneous, 4 days",57%
same,clinical signs or symptoms of a skin inflammation on normal skin,"[4]; epicutaneous 0.05% and 2.5% in acetone/ethanol, 4 consecutive days",does not induce clinical signs or symptoms of a skin inflammation
same,"skin inflammation, objective or subjective symptoms","[1]; 1% epicutaneous twice daily day 1-14, observation to day 28",no skin inflammation
same,"reduction of the inflammatory reaction compared to vehicle control (skin thickness, erythema, area of inflamed skin)",[5],very marked
same,reduction of all parameters in comparison to the values of 9-cis RA,[6],≥ 50%
